How the values were obtained:
Experiment in all cases: Test B pre-/postemergence plant response
Format in all cases: in vivo
[1] = system: downy bromegrass (Bromus tectorum)
Procedure, shortened: (§1)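 Greenhouse herbicide screen. Pre- and postemergence (1- to 4-leaf) spray of compound in solvent/surfactant mixture; loam–sand soil for pre, peat/vermiculite medium for post. Visual control rating 0–100 at 13 to 15 days after treatment.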

[2] = system: wheat (Triticum aestivum)
Procedure, shortened: as §1

[3] = system: large crabgrass (Digitaria sanguinalis)
Procedure, shortened: as §1

[4] = system: soybean (Glycine max)
Procedure, shortened: as §1

[5] = system: yellow nutsedge (Cyperus esculentus)
Procedure, shortened: as §1

[6] = system: cocklebur (Xanthium strumarium)
Procedure, shortened: as §1

[7] = system: kochia (Kochia scoparia)
Procedure, shortened: as §1

[8] = system: woolly cupgrass (Eriochloa villosa)
Procedure, shortened: as §1

[9] = system: Italian ryegrass (Lolium multiflorum)
Procedure, shortened: as §1

[10] = system: velvetleaf (Abutilon theophrasti)
Procedure, shortened: as §1

[11] = system: bermudagrass (Cynodon dactylon)
Procedure, shortened: as §1

[12] = system: morningglory (Ipomoea coccinea)
Procedure, shortened: as §1

[13] = 31 g ai/ha, postemergence, scale 0 to 100, 0 is no effect, 100 is complete control
[14] = 62 g ai/ha, postemergence, 0 is no effect, 100 is complete control, 13 to 15 days
[15] = Postemergence, 125 g ai/ha, scale 0 to 100 (0 no effect, 100 complete control)
[16] = Postemergence, 250 g ai/ha, scale 0 to 100 (0 no effect, 100 complete control)
[17] = Preemergence, 31 g ai/ha, scale 0 to 100 (0 no effect, 100 complete control)
[18] = Preemergence, 62 g ai/ha, scale 0 to 100 (0 no effect, 100 complete control)
[19] = Preemergence, 125 g ai/ha, scale 0 to 100, 0 no effect, 100 complete control
[20] = Preemergence, 250 g ai/ha, 0 to 100 scale

COCCCn1c(-c2cc(F)cc(F)c2)ncc(C(=O)C2=C(O)CCCC2=O)c1=O [Compound 120]
Plant response rating, Bromegrass, Downy [1, 13]: 20
Bromegrass, Downy plant response rating (0 to 100 scale) [1, 14]: 60
Plant response rating, Bromegrass, Downy [1, 15]: 60
Plant response rating, Bromegrass, Downy [1, 16]: 80
Plant response rating, Bromegrass, Downy [1, 17]: 10
Plant response rating, Bromegrass, Downy [1, 18]: 30
Plant response rating, Bromegrass, Downy [1, 19]: 30
Bromegrass, Downy plant response rating [1, 20]: 85
Wheat plant response rating (0 to 100 scale) [2, 14]: 40
Plant response rating, Wheat [2, 15]: 60
Plant response rating, Wheat [2, 17]: 0
Plant response rating, Wheat [2, 18]: 0
Plant response rating, Wheat [2, 19]: 25
Wheat plant response rating [2, 20]: 30
Plant response rating, Crabgrass, Large [3, 13]: 80
Crabgrass, Large plant response rating (0 to 100 scale) [3, 14]: 85
Plant response rating, Crabgrass, Large [3, 15]: 95
Plant response rating, Crabgrass, Large [3, 16]: 98
Plant response rating, Crabgrass, Large [3, 17]: 98
Plant response rating, Crabgrass, Large [3, 18]: 100
Plant response rating, Crabgrass, Large [3, 19]: 100
Crabgrass, Large plant response rating [3, 20]: 100
Soybean plant response rating (0 to 100 scale) [4, 14]: 80
Plant response rating, Soybean [4, 15]: 95
Plant response rating, Soybean [4, 16]: 98
Plant response rating, Soybean [4, 17]: 15
Plant response rating, Soybean [4, 18]: 70
Plant response rating, Soybean [4, 19]: 80
Soybean plant response rating [4, 20]: 80
Plant response rating, Nutsedge, Yellow [5, 13]: 5
Nutsedge, Yellow plant response rating (0 to 100 scale) [5, 14]: 35
Plant response rating, Nutsedge, Yellow [5, 15]: 65
Plant response rating, Nutsedge, Yellow [5, 16]: 75
Plant response rating, Nutsedge, Yellow [5, 17]: 70
Plant response rating, Nutsedge, Yellow [5, 18]: 90
Plant response rating, Nutsedge, Yellow [5, 19]: 98
Nutsedge, Yellow plant response rating [5, 20]: 98
Plant response rating, Cocklebur [6, 13]: 10
Cocklebur plant response rating (0 to 100 scale) [6, 14]: 15
Plant response rating, Cocklebur [6, 15]: 25
Plant response rating, Cocklebur [6, 16]: 80
Plant response rating, Cocklebur [6, 17]: 0
Plant response rating, Cocklebur [6, 18]: 35
Plant response rating, Cocklebur [6, 19]: 60
Cocklebur plant response rating [6, 20]: 98
Plant response rating, Kochia [7, 13]: 10
Kochia plant response rating (0 to 100 scale) [7, 14]: 40
Plant response rating, Kochia [7, 15]: 80
Plant response rating, Kochia [7, 16]: 98
Plant response rating, Kochia [7, 17]: 0
Plant response rating, Kochia [7, 18]: 20
Plant response rating, Kochia [7, 19]: 50
Kochia plant response rating [7, 20]: 75
Plant response rating, Cupgrass, Woolly [8, 13]: 70
Cupgrass, Woolly plant response rating (0 to 100 scale) [8, 14]: 75
Plant response rating, Cupgrass, Woolly [8, 15]: 100
Plant response rating, Cupgrass, Woolly [8, 16]: 100
Plant response rating, Cupgrass, Woolly [8, 17]: 50
Plant response rating, Cupgrass, Woolly [8, 18]: 70
Plant response rating, Cupgrass, Woolly [8, 19]: 75
Cupgrass, Woolly plant response rating [8, 20]: 90
Ryegrass, Italian plant response rating (0 to 100 scale) [9, 14]: 40
Plant response rating, Ryegrass, Italian [9, 15]: 60
Plant response rating, Ryegrass, Italian [9, 16]: 80
Plant response rating, Ryegrass, Italian [9, 17]: 100
Plant response rating, Ryegrass, Italian [9, 18]: 100
Plant response rating, Ryegrass, Italian [9, 19]: 100
Ryegrass, Italian plant response rating [9, 20]: 100
Velvetleaf plant response rating (0 to 100 scale) [10, 14]: 95
Plant response rating, Velvetleaf [10, 15]: 98
Plant response rating, Velvetleaf [10, 16]: 100
Plant response rating, Velvetleaf [10, 17]: 80
Plant response rating, Velvetleaf [10, 18]: 100
Plant response rating, Velvetleaf [10, 19]: 100
Velvetleaf plant response rating [10, 20]: 100
Plant response rating, Bermudagrass [11, 13]: 80
Bermudagrass plant response rating (0 to 100 scale) [11, 14]: 95
Plant response rating, Bermudagrass [11, 15]: 98
Plant response rating, Bermudagrass [11, 16]: 98
Plant response rating, Bermudagrass [11, 17]: 100
Plant response rating, Bermudagrass [11, 18]: 100
Plant response rating, Bermudagrass [11, 19]: 100
Bermudagrass plant response rating ([11]; Preemergence, 250 g ai/ha, 0 to 100 scale, 0 no effect, 100 complete control): 100
Plant response rating, Morningglory [12, 13]: 15
Morningglory plant response rating (0 to 100 scale) [12, 14]: 50
Plant response rating, Morningglory [12, 15]: 80
Plant response rating, Morningglory [12, 16]: 90
Plant response rating, Morningglory [12, 17]: 0
Plant response rating, Morningglory [12, 18]: 90
Plant response rating, Morningglory [12, 19]: 90
Morningglory plant response rating [12, 20]: 100

Source: US8952024B2, “Herbicidal pyrimidone derivatives” (E I du Pont de Nemours and Company, priority 2009, dated 2015)
